Values quoted from earlier work in patent US12084679B2, “Methods of in vitro differentiation of midbrain dopamine (mDA) neurons” (MEMORIAL SLOAN-KETTERING CANCER CENTER, priority 2015, dated 2024).

What was measured:
[1] = test system: rodent GSK3β homologs
[2] = target: T1, ALK2 (Homo sapiens, UniProt Q04771)
T1 sequence (Q04771 21-509): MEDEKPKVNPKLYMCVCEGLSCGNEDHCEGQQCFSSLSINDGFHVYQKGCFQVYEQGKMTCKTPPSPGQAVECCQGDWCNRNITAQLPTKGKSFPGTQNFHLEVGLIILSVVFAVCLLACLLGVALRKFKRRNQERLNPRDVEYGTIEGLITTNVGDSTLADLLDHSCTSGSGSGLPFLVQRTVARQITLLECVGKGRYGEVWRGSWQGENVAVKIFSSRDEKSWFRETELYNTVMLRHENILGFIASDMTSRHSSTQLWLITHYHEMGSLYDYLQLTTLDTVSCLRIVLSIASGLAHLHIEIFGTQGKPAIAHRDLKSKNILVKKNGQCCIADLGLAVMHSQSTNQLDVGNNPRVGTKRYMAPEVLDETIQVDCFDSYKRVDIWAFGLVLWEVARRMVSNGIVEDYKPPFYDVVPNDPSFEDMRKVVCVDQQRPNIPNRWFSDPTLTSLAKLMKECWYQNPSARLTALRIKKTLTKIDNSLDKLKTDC

[3] = target: ALK3 (Homo sapiens, UniProt P36894)
[4] = target: ALK6 (Homo sapiens, UniProt O00238)
Sequence of ALK6 (O00238 14-502): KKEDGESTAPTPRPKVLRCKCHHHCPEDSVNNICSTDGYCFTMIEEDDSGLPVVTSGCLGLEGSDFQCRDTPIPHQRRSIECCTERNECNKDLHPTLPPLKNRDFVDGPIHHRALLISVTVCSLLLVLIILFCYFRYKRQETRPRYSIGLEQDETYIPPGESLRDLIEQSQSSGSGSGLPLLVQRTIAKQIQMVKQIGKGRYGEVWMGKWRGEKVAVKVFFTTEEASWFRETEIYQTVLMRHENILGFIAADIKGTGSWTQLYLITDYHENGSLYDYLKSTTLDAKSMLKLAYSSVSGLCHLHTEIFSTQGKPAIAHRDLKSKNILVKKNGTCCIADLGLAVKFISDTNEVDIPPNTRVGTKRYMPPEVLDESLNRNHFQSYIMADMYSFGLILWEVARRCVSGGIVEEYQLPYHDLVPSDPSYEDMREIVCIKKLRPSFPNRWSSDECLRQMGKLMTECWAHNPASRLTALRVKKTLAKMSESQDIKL

Sequence of ALK3 (P36894 24-532, species assumed): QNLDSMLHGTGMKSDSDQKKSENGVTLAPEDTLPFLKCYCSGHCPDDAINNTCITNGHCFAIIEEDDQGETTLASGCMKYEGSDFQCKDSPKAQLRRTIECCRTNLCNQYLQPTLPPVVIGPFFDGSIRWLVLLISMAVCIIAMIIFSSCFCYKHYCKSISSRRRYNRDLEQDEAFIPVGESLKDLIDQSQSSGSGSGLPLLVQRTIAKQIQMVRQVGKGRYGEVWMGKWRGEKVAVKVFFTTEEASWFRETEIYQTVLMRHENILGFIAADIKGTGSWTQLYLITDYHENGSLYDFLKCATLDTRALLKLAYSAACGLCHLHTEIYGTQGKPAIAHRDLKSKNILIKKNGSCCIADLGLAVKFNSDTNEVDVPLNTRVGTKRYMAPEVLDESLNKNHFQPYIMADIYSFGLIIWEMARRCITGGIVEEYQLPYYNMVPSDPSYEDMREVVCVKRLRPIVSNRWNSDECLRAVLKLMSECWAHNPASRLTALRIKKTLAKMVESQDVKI

## Cc1c[nH]c(-c2cnc(NCCNc3ccc(C#N)cn3)nc2-c2ccc(Cl)cc2Cl)n1 [CHIR99021, 6-(2-(4-(2,4-dichlorophenyl)-5-(4-methyl-H-imidazol-2-yl)pyrimidin-2-ylamino)ethylamino)nicotinonitrile]
[1]
  IC50 values against rodent GSK3β homologs: nanomolar

## c1ccc2c(-c3cnn4cc(-c5ccc(N6CCNCC6)cc5)cnc34)ccnc2c1 [LDN193189, 4-(6-(4-(piperazin-1-yl)phenyl)pyrazolo[1,5-a]pyrimidin-3-yl)quinoline]
[2]
  inhibitor of ALK2: highly potent
[3]
  inhibitor of ALK3: highly potent
[4]
  inhibitor of ALK6: highly potent
